Reference: US20240174714A1, “TREATMENT OF SKIN DISORDERS” (priority 2021, published 2024)
In brackets after ≈: the same amount, converted by molar mass. Square brackets hold non-standard residues; d marks the D form. Peptide text beside a SMILES is read from it. * marks the point of attachment. NH(1-CH2NMe2-cBu) = CN(C)CC1(N*)CCC1; Benzoyl(4-F) = O=C(c1ccc(F)cc1)*; hCha = N[C@@H](CCC1CCCCC1)C(=O)O; Aib = CC(C)(N)C(=O)O; βAla = NCCC(=O)O

How the values were obtained:
[1] = Cytotoxicity assay (Alamar Blue) on L6-cells; assay type: cell-based, rat; conditions: rat
Protocol: Tests were done in triplicate.
The plates were incubated for additional 2 h.

[2] = system: Staphylococcus aureus NARSA NRS22; assay: microbe, parasite or virus in culture; assay type: cell-based
[3] = after 48 hours; donor 0.1% 6027 in DMSO; acceptor PBS + 2% Volpo; % of total 6027
Protocol: The ears were washed with tap water and the hairs were removed with an electric clipper. The skin was separated from the underlying cartilage from the backside of the ear by using a scalpel. After washing the skin again, it was stored in aluminium foil at −20° C. for no longer than one month.
After thawing the frozen skin, it was cut into adequate circles and the skin thickness was measured with a calliper. The skin was mounted into the FDC, tightly sealed with Teflon band and fixed in special designed holder. Then the acceptor compartment was equipped with a magnetic stirrer, filled with placebo formulation and equilibrated for one hour. To check the barrier integrity and to be sure that there are no invisible damages from skin preparation TEWL (transepidermal water loss) was measured. The FDCs were then placed in the water bath +32° C. ±1 over a magnetic stirrer (500 rpm). Due to differences of each FDC, the skin application area for drug permeation was measured and calculated for each cell in advance. Consequently, the amount of 6027 for the donor compartment had to be adjusted for the infinite-dose experiment to 284.1 μL/cm^2.
At predefined time points 50 μL samples were taken from the acceptor compartment. The missing volume was replaced with the corresponding placebo formulation.
At the end of the permeation experiment and before reassembling the FDCs, the donor compartments were washed out with 10 mL ACN:H2O (55:45).
To extract 6027 from the skin, the frozen skin was cut into small pieces and grinded by a cryogenic grinder Freezer/Mill® from Spex SamplePrep (Metuchen, USA). The setting was 10 min precooling and a rate of 10 CPS for 4 cycles with 2 minutes. The resulting powder was resuspended in 2 mL ACN:H2O (55:45). After being vortex, the mixtures were ultrasonicated with Branson Sonifier 250 (model: 101-cx03-197) from Branson Ultrasonics Corporation (Danbury, USA). The setting for ultrasonification was output control 2 and duty cycle 30% for 60 seconds. […]
The concentrations of 6027 were determined by using HPLC-MS from Agilent Technologies. […]

[4] = system: Staphylococcus aureus ATCC 29213; assay: MIC broth microdilution, method 1; assay type: cell-based; conditions: CAMHB II, 1 day at 36° C., 6027 acetate
[5] = system: Staphylococcus aureus ATCC 33591; assay: microbe, parasite or virus in culture; assay type: cell-based; conditions: ATCC 33591, Methicillin resistant; 6027 acetate
[6] = system: axenic Leishmania donovani MHOM-ET-67/L82 amastigotes; assay: In vitro antiprotozoal assay, axenic amastigotes; assay type: cell-based; conditions: axenic amastigotes; read-out: L.don.ax. IC50
Protocol: The testing of the inventive compounds against Leishmania donovani (strain MHOM/ET/67/L82) was performed in 96 well plates at concentrations in serial dilutions. Tests were done in triplicate.

[7] = system: S. aureus (USA300 MRSA, BAA-1556); assay: S. aureus dermal infection model in ICR mice, CFU/skin; assay type: in vivo, Staphylococcus aureus; conditions: 25 hours post inoculation; topical BID at 1 and 7 h post infection, 20 μL/mouse; 6027 1% in DMSO, fusidic acid 2%
Protocol: Inoculum preparation. The testing strain, S. aureus USA300 MRSA (BAA-1556), was obtained from the frozen working stock and thawed at room temperature. A 0.2 mL aliquot was inoculated into 20 mL Brain-Heart Infusion broth (BHI) and then incubated at 35-37° C. with shaking (120 rpm) for 8 h. Bacterial cells in the 20 mL culture were pelleted by centrifugation at 3,500×g for 15 minutes and then re-suspended in 10 mL cold PBS (>8.0×10^9 CFU/mL, OD620 1.8-2.0). The culture was then diluted in PBS to the target inoculum of 1.0×10^7 CFU/mL. The actual bacterial counts were determined by plating dilutions onto nutrient agar (NA) plates followed by 20-24 h incubation and colony counting. The actual CFU counts were 1.04×10^7 CFU/mL.
S. aureus (USA300 MRSA, BAA-1556) dermal infection model. Groups of 5 female ICR mice weighing 24±2 g were used. Animals were anesthetized with etomidate-lipuro emulsion (20 mg/10 mL) at 20 mg/kg by intravenous (IV) injection, and then the fur on the back was removed by an electric shaver, and the epidermal layer was disrupted with an abrasive paper. Mice were inoculated topically (TOP) on the wound area with S. aureus (MRSA, BAA-1556) suspension, 5 μL/mouse. The target inoculation density was 5×10^4 CFU/mouse and the actual inoculum count 5.2×10^4 CFU/mouse. Animals were housed separately after infection. Compound 6027 in DMSO at 1% was administered topically (TOP) twice (BID) at 1 and 7 h post infection. Reference control agent, fusidic acid cream at 20 mg/gram (2%), was administered TOP BID at 1 and 7 h post infection. One infected and untreated group was sacrificed at 1 h after infection for the initial (baseline) bacterial counts. The dose volumes were 20 μL/mouse for all dosing groups.
Animals were sacrificed at 1 or 25 h after inoculation with CO2 asphyxiation. The infected skin samples of the wound infection (around 2 cm 2 areas) were excised and were homogenized in 1 mL PBS (pH 7.4) with a polytron homogenizer. A 0.1 mL aliquot of each homogenate was used for serial 10-fold dilutions and plated onto NA plates for bacterial enumeration. The bacterial counts (CFU/skin) in skin tissues were calculated and the percentage decrease in counts compared to the corresponding vehicle control (placebo) was calculated with the following formula: Decrease (%)=[(CFU/skin of placebo —CFU/skin of treatment)/(CFU/skin of placebo)]×100%.

[8] = physchem; conditions: water

SMILES: CC(C)C[C@H](NC(=O)[C@H](CCC1CCCCC1)NC(=O)[C@@H]1CCCN1C(=O)c1ccc(F)cc1)C(=O)NC(C)(C)C(=O)N[C@@H](CC(C)C)C(=O)N[C@@H](CC(C)C)C(=O)NC(C)(C)C(=O)NC(C)(C)C(=O)NCCC(=O)NC1(CN(C)C)CCC1 [Compound 6027, (2S)-2-[(2S)-4-cyclohexyl-2-{[(2S)-1-(4-fluorobenzoyl)pyrrolidin-2-yl]formamido}butanamido]-N-(1-{[(1S)-1-{[(1S)-1-({1-[(1-{[2-({1-[(dimethylamino)methyl]cyclobutyl}carbamoyl)ethyl]carbamoyl}-1-methylethyl)carbamoyl]-1-methylethyl}carbamoyl)-3-methylbutyl]carbamoyl}-3-methylbutyl]carbamoyl}-1-methylethyl)-4-methylpentanamide] ({Benzoyl(4-F)}-P[hCha]L[Aib]LL[Aib][Aib][βAla]-{NH(1-CH2NMe2-cBu)})
- IC50 at 68 h [1]: 1340 nM
- MIC of 6027 [2]: 2 µg/mL
- Acceptor (%) [3]: 0.2%
- Donor (%) [3]: 79%
- Skin extraction (%) (skin penetration) [3]: 16%
- MIC of 6027 [4]: 1 µg/mL
- MIC of 6027 [5]: 4 µg/mL
- IC50 [6]: 5.7 nM
- Decrease (%) in CFU/skin vs vehicle control [7]: 71%
- LogCFU/skin after 25 hours (Standard error of the mean − SEM) [7]: 6.50 (0.16) LogCFU/skin
- solubility [8]: 22 µg/mL (≈ 18.6 µM)
